From ChEMBL document CHEMBL1129835, “Selective cytotoxicity of certain 9-substituted ellipticines for leukemia cells in a variety of leukemia cell cultures” (1997)

Columns and labels:
Type in all cases: functional
Settings in all cases: Homo sapiens
[1] = tested on: PC-3; experiment: The compound was evaluated for cytotoxicity against PC-3 prostate cancer cell line
[2] = tested on: MOLT-4; experiment: The compound was evaluated for cytotoxicity against MOLT-4 leukemia cell line
[3] = tested on: NCI-H322M; experiment: The compound was evaluated for cytotoxicity against NCI-H322M non-small cell lung cancer cell line
[4] = tested on: HCT-116; experiment: The compound was evaluated for cytotoxicity against HCT116 colon cancer cell line
[5] = tested on: IGROV-1; experiment: The compound was evaluated for cytotoxicity against IGROV1 ovarian cancer cell line
[6] = tested on: U-251; experiment: The compound was evaluated for cytotoxicity against U251 CNS cancer cell line
[7] = tested on: CAKI-1; experiment: The compound was evaluated for cytotoxicity against CAKI-1 renal cancer cell line
[8] = tested on: LOX IMVI; experiment: The compound was evaluated for cytotoxicity against LOX-IMVI melanoma cell line
[9] = tested on: MDA-N; experiment: The compound was evaluated for cytotoxicity against MDA-N breast cancer cell line

SMILES | GI50 [1] [nM] | GI50 [2] [nM] | GI50 [3] [nM] | GI50 [4] [nM] | GI50 [5] [nM] | GI50 [6] [nM] | GI50 [7] [nM] | GI50 [8] [nM] | GI50 [9] [nM]
CCN(CC)CCNCc1ccc2[nH]c3c(C)c4ccncc4c(C)c3c2c1 | 210 | 10 | 60 | 50 | 40 | 180 | 160 | 120 | 110
Cc1c2ccncc2c(C)c2c1[nH]c1ccc(CN(CCO)CCO)cc12 | 340 | 20 | 220 | 100 | 120 | 260 | 250 | 150 | 370
